In US20090304692A1, “TRIAZINE COMPOUNDS AS PI3 KINASE AND MTOR INHIBITORS” (Wyeth, priority 2008, published 2009) one finds IC50 data, which are given here for 21 molecules.

One assay addresses Human mTOR (FLAG-TOR) (Homo sapiens, UniProt P42345). As to the kind of experiment: mTOR kinase assay (DELFIA format, purified enzyme). The format is biochemical. The note with it: read-out: IC50 mTOR.
For assay [1], the system named is human prostate PC3-mm2 tumor cell line. As to the kind of experiment: In vitro cell culture growth assay (MTS), PC3-mm2. Conditions: Homo sapiens, PC3MM2, 72 h. The format is cell-based.
The next assay has as its target PI3K-α (Homo sapiens, UniProt P42336). As to the kind of experiment: PI3K-alpha fluorescence polarization assay. The note with it: read-out: IC50 PI3Kα.
A further assay concerns the target PI3K-γ (Homo sapiens, UniProt P48736). As to the kind of experiment: PI3K-gamma fluorescence polarization assay. Conditions: read-out: IC50 PI3Kγ. Background: Fluorescence polarisation rises when a labelled molecule tumbles more slowly, as on binding a larger partner.
Setting [2] is: MTS cell growth assay, three days after drug treatment, read-out: IC50 PC3-mm2.
Where [3] appears, read: MTS cell growth assay, three days after drug treatment, PC3-mm2 cells, read-out: IC50 PC3-mm2.

Where “and” joins values, the source holds several entries; their conditions need not be identical. Equal entries are not always repeated. Where two headings read alike, the source gives them in different places.

PI3K-γ, sequence (P48736 whole entry, species assumed): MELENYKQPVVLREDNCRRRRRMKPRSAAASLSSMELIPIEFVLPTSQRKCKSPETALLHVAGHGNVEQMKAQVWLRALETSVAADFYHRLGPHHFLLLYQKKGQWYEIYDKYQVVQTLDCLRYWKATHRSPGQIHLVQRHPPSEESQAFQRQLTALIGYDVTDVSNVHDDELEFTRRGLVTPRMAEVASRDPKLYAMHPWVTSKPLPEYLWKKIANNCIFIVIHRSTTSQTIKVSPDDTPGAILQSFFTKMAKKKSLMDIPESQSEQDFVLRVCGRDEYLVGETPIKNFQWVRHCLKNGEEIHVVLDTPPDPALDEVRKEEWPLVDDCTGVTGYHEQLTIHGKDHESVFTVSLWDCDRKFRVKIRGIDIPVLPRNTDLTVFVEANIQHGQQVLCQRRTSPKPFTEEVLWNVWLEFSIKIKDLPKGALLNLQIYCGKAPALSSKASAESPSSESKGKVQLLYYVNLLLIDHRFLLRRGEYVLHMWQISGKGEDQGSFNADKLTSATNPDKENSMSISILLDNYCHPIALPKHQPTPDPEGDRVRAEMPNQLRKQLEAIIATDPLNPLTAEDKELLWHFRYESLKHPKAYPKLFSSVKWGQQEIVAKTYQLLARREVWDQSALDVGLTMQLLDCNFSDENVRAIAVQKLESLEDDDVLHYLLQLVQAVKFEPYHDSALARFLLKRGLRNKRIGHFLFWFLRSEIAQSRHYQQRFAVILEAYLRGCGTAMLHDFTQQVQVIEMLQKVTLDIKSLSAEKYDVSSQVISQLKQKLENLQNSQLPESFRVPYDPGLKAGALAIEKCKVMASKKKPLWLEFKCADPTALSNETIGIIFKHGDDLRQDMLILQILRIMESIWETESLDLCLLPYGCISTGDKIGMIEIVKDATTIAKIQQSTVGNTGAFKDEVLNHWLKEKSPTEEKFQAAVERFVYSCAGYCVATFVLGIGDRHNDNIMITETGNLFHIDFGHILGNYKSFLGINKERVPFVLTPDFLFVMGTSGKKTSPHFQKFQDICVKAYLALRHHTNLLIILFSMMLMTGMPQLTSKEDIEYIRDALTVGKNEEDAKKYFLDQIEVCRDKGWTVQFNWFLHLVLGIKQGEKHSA
Human mTOR (FLAG-TOR), sequence (P42345 1360-2549 limits assumed): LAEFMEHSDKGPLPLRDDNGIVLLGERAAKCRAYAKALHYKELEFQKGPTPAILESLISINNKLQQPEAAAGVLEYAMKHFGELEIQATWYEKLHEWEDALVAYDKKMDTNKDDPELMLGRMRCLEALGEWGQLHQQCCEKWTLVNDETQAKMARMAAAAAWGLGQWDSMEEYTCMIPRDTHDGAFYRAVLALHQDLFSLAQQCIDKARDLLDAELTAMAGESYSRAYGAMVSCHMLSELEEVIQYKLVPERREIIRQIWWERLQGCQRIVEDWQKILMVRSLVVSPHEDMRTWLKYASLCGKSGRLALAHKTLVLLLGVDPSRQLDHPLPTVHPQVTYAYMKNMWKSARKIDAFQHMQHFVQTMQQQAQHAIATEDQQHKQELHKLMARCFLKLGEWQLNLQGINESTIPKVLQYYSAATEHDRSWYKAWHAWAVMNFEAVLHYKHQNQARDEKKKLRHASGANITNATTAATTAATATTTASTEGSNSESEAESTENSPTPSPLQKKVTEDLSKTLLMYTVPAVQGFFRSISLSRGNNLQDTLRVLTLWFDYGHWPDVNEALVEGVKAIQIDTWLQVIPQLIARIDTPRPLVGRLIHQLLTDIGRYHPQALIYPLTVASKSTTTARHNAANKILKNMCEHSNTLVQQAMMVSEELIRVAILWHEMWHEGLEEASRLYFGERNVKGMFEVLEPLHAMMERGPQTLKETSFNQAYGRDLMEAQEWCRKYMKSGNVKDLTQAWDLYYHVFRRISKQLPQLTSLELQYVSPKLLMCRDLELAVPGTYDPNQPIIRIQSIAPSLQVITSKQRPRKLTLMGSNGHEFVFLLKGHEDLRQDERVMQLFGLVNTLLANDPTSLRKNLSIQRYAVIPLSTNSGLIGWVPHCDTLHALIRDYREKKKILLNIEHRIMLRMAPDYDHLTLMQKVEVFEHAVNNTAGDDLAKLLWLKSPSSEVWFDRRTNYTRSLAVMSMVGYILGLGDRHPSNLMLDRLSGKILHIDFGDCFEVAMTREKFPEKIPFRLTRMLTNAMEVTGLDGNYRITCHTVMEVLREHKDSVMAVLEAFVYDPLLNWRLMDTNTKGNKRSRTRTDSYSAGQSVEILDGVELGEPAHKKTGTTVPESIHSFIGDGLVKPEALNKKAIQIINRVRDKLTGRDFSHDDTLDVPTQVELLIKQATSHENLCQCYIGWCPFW
PI3K-α, sequence (P42336 whole entry, species assumed): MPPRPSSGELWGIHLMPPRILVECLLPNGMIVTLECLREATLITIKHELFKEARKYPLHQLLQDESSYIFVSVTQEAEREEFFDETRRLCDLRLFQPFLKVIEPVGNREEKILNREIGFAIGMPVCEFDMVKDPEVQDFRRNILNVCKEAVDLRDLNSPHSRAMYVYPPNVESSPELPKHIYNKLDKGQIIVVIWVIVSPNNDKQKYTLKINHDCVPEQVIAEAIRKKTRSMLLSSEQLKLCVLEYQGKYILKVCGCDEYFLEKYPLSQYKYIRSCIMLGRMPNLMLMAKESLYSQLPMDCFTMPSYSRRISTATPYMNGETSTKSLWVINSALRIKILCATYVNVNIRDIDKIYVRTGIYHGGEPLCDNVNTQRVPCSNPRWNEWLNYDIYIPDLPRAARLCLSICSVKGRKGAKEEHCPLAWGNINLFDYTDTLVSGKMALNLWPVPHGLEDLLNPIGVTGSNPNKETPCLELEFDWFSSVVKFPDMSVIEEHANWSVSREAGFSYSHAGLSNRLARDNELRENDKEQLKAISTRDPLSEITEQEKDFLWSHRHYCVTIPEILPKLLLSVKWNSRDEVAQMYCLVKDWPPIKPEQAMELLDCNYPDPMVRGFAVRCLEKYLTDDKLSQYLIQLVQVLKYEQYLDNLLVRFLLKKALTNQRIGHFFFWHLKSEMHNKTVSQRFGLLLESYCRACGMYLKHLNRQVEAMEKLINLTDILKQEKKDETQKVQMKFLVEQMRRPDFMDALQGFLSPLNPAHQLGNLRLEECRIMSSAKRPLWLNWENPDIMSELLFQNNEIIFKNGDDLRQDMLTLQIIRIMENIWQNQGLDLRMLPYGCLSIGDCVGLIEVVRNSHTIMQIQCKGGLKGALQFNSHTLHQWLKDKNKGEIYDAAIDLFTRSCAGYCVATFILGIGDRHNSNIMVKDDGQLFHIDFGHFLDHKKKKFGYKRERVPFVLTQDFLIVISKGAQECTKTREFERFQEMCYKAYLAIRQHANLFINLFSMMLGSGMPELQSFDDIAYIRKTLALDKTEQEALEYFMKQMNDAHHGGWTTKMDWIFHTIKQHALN
PI3K-α, sequence (P27986 whole entry partner, species assumed): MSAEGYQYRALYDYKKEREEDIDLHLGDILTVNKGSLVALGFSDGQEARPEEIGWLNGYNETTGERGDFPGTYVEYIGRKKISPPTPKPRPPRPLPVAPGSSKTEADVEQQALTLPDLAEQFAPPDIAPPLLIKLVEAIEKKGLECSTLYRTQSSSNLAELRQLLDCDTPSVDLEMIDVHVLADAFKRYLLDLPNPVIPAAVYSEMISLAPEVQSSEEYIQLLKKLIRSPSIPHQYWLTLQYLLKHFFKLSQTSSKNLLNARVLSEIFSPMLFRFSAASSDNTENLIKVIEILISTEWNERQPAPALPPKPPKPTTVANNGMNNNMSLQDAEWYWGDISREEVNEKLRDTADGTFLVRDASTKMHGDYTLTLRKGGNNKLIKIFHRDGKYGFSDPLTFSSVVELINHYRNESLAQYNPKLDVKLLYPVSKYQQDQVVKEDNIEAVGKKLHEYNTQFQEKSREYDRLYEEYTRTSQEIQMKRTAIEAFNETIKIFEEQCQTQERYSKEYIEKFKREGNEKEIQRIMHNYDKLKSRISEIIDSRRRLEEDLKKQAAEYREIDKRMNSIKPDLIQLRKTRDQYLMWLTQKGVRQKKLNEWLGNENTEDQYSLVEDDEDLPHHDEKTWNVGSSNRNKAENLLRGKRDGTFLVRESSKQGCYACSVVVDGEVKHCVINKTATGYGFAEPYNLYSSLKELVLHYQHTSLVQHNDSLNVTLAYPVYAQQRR

By IC50 is commonly meant the concentration that inhibits the measured activity by half. Take `CNC(=O)c1ccc(NC(=O)Nc2ccc(-c3nc(N4CCOCC4)nc(N4CCOCC4)n3)cc2)cc1` [Example 70, 4-(3-(4-(4,6-dimorpholino-1,3,5-triazin-2-yl)phenyl)ureido)-N-methylbenzamide]: the half-maximal inhibitory concentration (IC50) on Human mTOR (FLAG-TOR) was found to be 0.7 nM; in assay [1] (read-out: IC50 PC3-mm2, MTS cell growth assay, three days after drug treatment), 24 nM.
For `CN(C)C1CCN(C(=O)c2ccc(NC(=O)Nc3ccc(-c4nc(N5CCOCC5)nc(N5CCOCC5)n4)cc3)cc2)C1` (centres unmarked) [Example 167, 1-(4-{[3-(dimethylamino)pyrrolidin-1-yl]carbonyl}phenyl)-3-[4-(4,6-dimorpholin-4-yl-1,3,5-triazin-2-yl)phenyl]urea], the IC50 at Human mTOR (FLAG-TOR) worked out at 0.68 nM; in assay [1] (setting [2]) it was 10 nM; at PI3K-α, 0.8 nM.
For `CC(C)c1nc(-c2ccc(NC(=O)Nc3ccc(C(=O)N4CCN(C)CC4)cc3)cc2)nc(N2CCOCC2)n1` [Example 304, 1-{4-[4-(1-methylethyl)-6-morpholin-4-yl-1,3,5-triazin-2-yl]phenyl}-3-{4-[(4-methylpiperazin-1-yl)carbonyl]phenyl}urea], the IC50 at Human mTOR (FLAG-TOR) was 2.5 nM and 4.5 nM; in assay [1] (setting [3]), 39.3 nM; in assay [1] (setting [2]), 39.3 nM; on PI3K-α, 2 nM; at PI3K-α (listed as 486), 1.1 nM.
Turning to `CN(C)C1CCN(C(=O)c2ccc(NC(=O)Nc3ccc(-c4nc(-c5cccs5)nc(N5CCOCC5)n4)cc3)cc2)CC1` [Example 568, 1-(4-{[4-(dimethylamino)piperidin-1-yl]carbonyl}phenyl)-3-{4-[4-morpholin-4-yl-6-(2-thienyl)-1,3,5-triazin-2-yl]phenyl}urea], the figures for the IC50 (at Human mTOR (FLAG-TOR); in assay [1] (setting [3]); on PI3K-α) were 10 nM, 107 nM and 3.5 nM, respectively.
Turning to `CN(C)CCOc1ccc(NC(=O)Nc2ccc(-c3nc(NS(=O)(=O)c4ccccc4)nc(N4CCOCC4)n3)cc2)cc1` [Example 783, N-(4-{4-[({4-[2-(dimethylamino)ethoxy]phenyl}carbamoyl)amino]phenyl}-6-morpholin-4-yl-1,3,5-triazin-2-yl)benzenesulfonamide], the figures for the concentration for half-maximal inhibition (IC50) on PI3K-γ, on Human mTOR (FLAG-TOR) and on PI3K-α were 736 nM, 295 nM and 346 nM, respectively.
The corresponding values for `COC(=O)c1ccc(NC(=O)Nc2ccc(-c3nc(NS(=O)(=O)c4ccccc4)nc(N4CCOCC4)n3)cc2)cc1` [Example 789, methyl 4-{[(4-{4-morpholin-4-yl-6-[(phenylsulfonyl)amino]-1,3,5-triazin-2-yl}phenyl)carbamoyl]amino}benzoate] are 1160 nM, 59 nM and 870 nM.
The corresponding values for `O=C(Nc1ccc(C(=O)O)cc1)Nc1ccc(-c2nc(NS(=O)(=O)c3ccccc3)nc(N3CCOCC3)n2)cc1` [Example 790, 4-{[(4-{4-morpholin-4-yl-6-[(phenylsulfonyl)amino]-1,3,5-triazin-2-yl}phenyl)carbamoyl]amino}benzoic acid] are 593 nM, 65 nM and 244 nM.
On to `Cc1cc(NC(=O)Nc2ccc(-c3nc(N4CCOCC4)nc(N4CC5CCC4CO5)n3)cc2)n(C)n1` (centres unmarked) [Example 808, 1-(1,3-dimethyl-1H-pyrazol-5-yl)-3-{4-[4-morpholin-4-yl-6-(2-oxa-5-azabicyclo[2.2.2]oct-5-yl)-1,3,5-triazin-2-yl]phenyl}urea], for which the IC50 is 1260 nM on PI3K-γ, 260 nM on Human mTOR (FLAG-TOR) and 381 nM at PI3K-α.
Taken in the same sequence, the figures for `O=C(Nc1ccc(-c2nc(N3CCOCC3)nc(N3CC4CCC3CO4)n2)cc1)Nc1cc[nH]n1` (centres unmarked) [Example 809, 1-{4-[4-morpholin-4-yl-6-(2-oxa-5-azabicyclo[2.2.2]oct-5-yl)-1,3,5-triazin-2-yl]phenyl}-3-(1H-pyrazol-3-yl)urea] were 2190 nM, 67 nM and 395 nM.
As to `O=C(Nc1ccncc1)Nc1ccc(-c2nc(N3CCOCC3)nc(N3C4COCC3[C@H](O)C4)n2)cc1` (stereo partly drawn) [Example 820, 1-(4-{4-[(6R)-6-hydroxy-3-oxa-8-azabicyclo[3.2.1]oct-8-yl]-6-morpholin-4-yl-1,3,5-triazin-2-yl}phenyl)-3-pyridin-4-ylurea], the figures for the half-maximal inhibitory concentration (IC50) on PI3K-γ, at Human mTOR (FLAG-TOR) and at PI3K-α were 67 nM, 0.515 nM and 6.1 nM, respectively.
Taken in the same sequence, the figures for `O=C(Nc1ccncc1)Nc1ccc(-c2nc(N3CCOCC3)nc(N3C4COCC3[C@H](OCc3ccccc3)C4)n2)cc1` (stereo partly drawn) [Example 821, 1-(4-{4-[(6R)-6-(benzyloxy)-3-oxa-8-azabicyclo[3.2.1]oct-8-yl]-6-morpholin-4-yl-1,3,5-triazin-2-yl}phenyl)-3-pyridin-4-ylurea] were 58.3 nM, 3.4 nM and 9.3 nM.
In the case of `O=C(Nc1ccc(C(=O)N2CCS(=O)(=O)CC2)cc1)Nc1ccc(-c2nc(N3CCOCC3)nc(N3C4CCC3COC4)n2)cc1` [Example 822, 1-{4-[(1,1-dioxidothiomorpholin-4-yl)carbonyl]phenyl}-3-{4-[4-morpholin-4-yl-6-(3-oxa-8-azabicyclo[3.2.1]oct-8-yl)-1,3,5-triazin-2-yl]phenyl}urea], the IC50 at PI3K-γ is 31.5 nM; at Human mTOR (FLAG-TOR), 0.335 nM; at PI3K-α, 3 nM.
Regarding `CN(C)[C@@H]1CCN(C(=O)c2ccc(NC(=O)Nc3ccc(-c4nc(N5CCOCC5)nc(N5C6CCC5COC6)n4)cc3)cc2)C1` [Example 825, 1-(4-{[(3R)-3-(dimethylamino)pyrrolidin-1-yl]carbonyl}phenyl)-3-{4-[4-morpholin-4-yl-6-(3-oxa-8-azabicyclo[3.2.1]oct-8-yl)-1,3,5-triazin-2-yl]phenyl}urea], the IC50 turned out to be 13 nM on PI3K-γ, 185 nM on Human mTOR (FLAG-TOR), 2 nM at PI3K-α and 2.05 nM on PI3K-α (listed as 828).
For the molecule `C[C@H]1COCCN1c1nc(-c2ccc(NC(=O)Nc3ccncc3)cc2)nc(N2C3CCC2COC3)n1` [Example 829, 1-(4-{4-[(3S)-3-methylmorpholin-4-yl]-6-(3-oxa-8-azabicyclo[3.2.1]oct-8-yl)-1,3,5-triazin-2-yl}phenyl)-3-pyridin-4-ylurea], the 50% inhibitory concentration (IC50) is 188 nM on PI3K-γ, 520 nM at Human mTOR (FLAG-TOR) and 10.5 nM at PI3K-α.
Taken in the same sequence, the figures for `C[C@H]1COCCN1c1nc(-c2ccc(NC(=O)Nc3ccc(C(=O)N(C)CCN(C)C)cc3)cc2)nc(N2C3CCC2COC3)n1` [Example 831, N-[2-(dimethylamino)ethyl]-N-methyl-4-{[(4-{4-[(3S)-3-methylmorpholin-4-yl]-6-(3-oxa-8-azabicyclo[3.2.1]oct-8-yl)-1,3,5-triazin-2-yl}phenyl)carbamoyl]amino}benzamide] were 87.5 nM, 265 nM and 3.3 nM.
The corresponding values for `C[C@H]1COCCN1c1nc(-c2ccc(NC(=O)Nc3ccc(C(=O)O)cc3)cc2)nc(N2C3CCC2COC3)n1` [Example 832, 4-{[(4-{4-[(3S)-3-methylmorpholin-4-yl]-6-(3-oxa-8-azabicyclo[3.2.1]oct-8-yl)-1,3,5-triazin-2-yl}phenyl)carbamoyl]amino}benzoic acid] are 342 nM, 165 nM and 61.5 nM.
Consider `C[C@H]1COCCN1c1nc(-c2ccc(NC(=O)Nc3ccc(C(=O)N4CC[C@@H](N(C)C)C4)cc3)cc2)nc(N2C3CCC2COC3)n1` [Example 833, 1-(4-{[(3R)-3-(dimethylamino)pyrrolidin-1-yl]carbonyl}phenyl)-3-(4-{4-[(3S)-3-methylmorpholin-4-yl]-6-(3-oxa-8-azabicyclo[3.2.1]oct-8-yl)-1,3,5-triazin-2-yl}phenyl)urea], for which the IC50 on PI3K-γ is 81.5 nM; on Human mTOR (FLAG-TOR) it was 185 nM; on PI3K-α, 5.6 nM.
Taken in the same sequence, the figures for `C[C@H]1COCCN1c1nc(-c2ccc(NC(=O)Nc3ccc(C(=O)N4CC[C@H](N(C)C)C4)cc3)cc2)nc(N2C3CCC2COC3)n1` [Example 834, 1-(4-{[(3S)-3-(dimethylamino)pyrrolidin-1-yl]carbonyl}phenyl)-3-(4-{4-[(3S)-3-methylmorpholin-4-yl]-6-(3-oxa-8-azabicyclo[3.2.1]oct-8-yl)-1,3,5-triazin-2-yl}phenyl)urea] were 86.5 nM, 680 nM and 4.8 nM.
Taken in the same sequence, the figures for `CCN1CCN(C(=O)c2ccc(NC(=O)Nc3ccc(-c4nc(N5C6CCC5COC6)nc(N5CCOC[C@@H]5C)n4)cc3)cc2)CC1` [Example 836, 1-{4-[(4-ethylpiperazin-1-yl)carbonyl]phenyl}-3-(4-{4-[(3S)-3-methylmorpholin-4-yl]-6-(3-oxa-8-azabicyclo[3.2.1]oct-8-yl)-1,3,5-triazin-2-yl}phenyl)urea] were 41 nM, 665 nM and 5.1 nM.
For `CN1CCN(C(=O)c2ccc(NC(=O)Nc3ccc(-c4nc(N5CCOCC5)nc(N5C6CCC5COC6)n4)cc3)cc2)CC1(C)C` [Example 837, 1-{4-[4-(morpholin-4-yl)-6-(3-oxa-8-azabicyclo[3.2.1]oct-8-yl)-1,3,5-triazin-2-yl]phenyl}-3-{4-[(3,3,4-trimethylpiperazin-1-yl)carbonyl]phenyl}urea], the IC50 on PI3K-γ turned out to be 19.5 nM; at Human mTOR (FLAG-TOR), 515 nM; at PI3K-α, 3.7 nM.
The corresponding values for “N-[2-(dimethylamino)ethyl]-N-methyl-4-[({4-[4-morpholin-4-yl-6-(tetrahydro-2H-pyran-4-yl)-1,3,5-triazin-2-yl]phenyl}carbamoyl)amino]benzamide [Example 524]” are 10 nM, 0.26 nM and 0.8 nM.
